From patent US20150034084A1, “[…] NITRIC OXIDE FOR TREATING RESPIRATORY DISEASES” (Advanced Inhalation Therapies (AIT) Ltd., priority 2012, published 2015)

Experiments:
[1] = OSHA / Environmental Protection Agency; cited from earlier work
[2] = Phase I open label safety study of intermittent 160 ppm gNO inhalation: adverse events, vital signs, oxygenation; type: in vivo, human
Excerpt: 10 healthy adult volunteer subjects (5 males, 5 females), aged 20 to 62 years, were enrolled in the study after screening their medical history, a physical examination, pulmonary function tests and blood values. Exclusion criteria included individuals less than 19 years of age, pregnant females and unwilling to practice birth control during the study, diagnosed with pulmonary disease, epistaxis, hemoptysis, methemoglobinemia, organ transplant recipient or receiving antibiotic therapy.
(§1) After obtaining informed consent, treatment was initiated within 5 days of enrollment. Subjects were housed in a hospital ward and received 160 ppm gNO for 30 minutes every four hours (Q4h), five times a day, for five consecutive days by inhalation. Subjects returned for follow-up evaluations 3, 7 and 21 days after the final gNO administration. Subject safety was determined by monitoring vital signs, methemoglobin levels, lung function, blood chemistry, hematology, prothrombin time, inflammatory cytokine/chemokines levels and endothelial activation. These parameters were compared to baseline and at various time-points during and after gNO administration.
Subjects were administered gNO through a modified disposable mouthpiece to maximize mixing. Inspiration was spontaneously initiated by the subject from a conventional intermittent positive pressure breathing respirator (Mark-7, Carefusion, USA) in fixed flow mode delivering 48 liters per minute (LPM). Flows of gas were verified with a calibrated mass flow meter (TSI, USA). Gaseous nitric oxide (gNO, obtained at INOmax, Ikaria, USA) at a concentration of 800 ppm delivered at a flow of 12 LPM was titrated into a distal delivery port on the mouth piece connected to the respirator during inspiratory phase only (pressure switch). The Mark 7 respirator was supplied by an air/oxygen blender (Bird Sentry, Carefusion, USA) set to deliver 26% oxygen.
General medical examinations were performed by a pulmonary physician on screening and on days 8, 12 and 26 to obtain oxygenation and vital sign measurements. Abbreviated physical examination by a registered nurse was carried out each day prior to initiation of treatments on days 1-5. Oxygenation was measured with a pulse oximeter (Rad 57, Masimo Corporation, USA) which was used according to manufacturer's guidelines to measure functional oxygen saturation of arterial hemoglobin (SpO2) and heart rate. These parameters were measured continuously during every gNO administration and for 3.5 hours after the first treatment of the day. Cardiovascular status was determined by monitoring heart rate, blood pressure, respiratory rate and temperature. Values were recorded prior to the start of each gNO administration, following a 5 minute rest. During treatments, vital signs (except temperature) were also performed 15 minutes after the start of the treatment and at the end of gNO administration and recorded. After the first treatment each day, vital signs were recorded at every 30 minutes until the start of the second gNO administration of the day.

S. aureus (ATCC) = conditions: 200 ppm gNO, saline; cited from earlier work
[3] = test system: highly pathogenic Avian Influenza H7N3; conditions: cited from earlier work
Ang-1 and Ang-2 = assay: Phase I safety study: plasma angiopoietins (vascular endothelial activation); type: in vivo, human; conditions: 160 ppm gNO inhalation
Protocol: as §1
Hematological assessment included a complete blood count and differentials (hemoglobin, hematocrit, red blood cell count, white blood cell count, white blood cell differential, and platelet count) were obtained in order to monitor blood chemistry, hematology and inflammation measurements. The blood chemistry profile included serum creatinine, and liver function tests such as aspartate aminotransferase (AST) serum glutamic oxaloacetic transaminase (SGOT), alkaline phosphatase, and gamma-glutamyl transferase (GGT). The effect of gNO on coagulation was determined by the prothrombin time (PT) and its derived measures of prothrombin ratio (PR) and international normalized ratio (INR). Heparinized plasma was collected at baseline and on days 1, 2, 4, and 5 of gNO administration, and on follow-up days 3, 7 and 21 and frozen at −80° C. Plasma cytokine levels were assessed using the human inflammation cytokine bead array kit (BD Bioscience, Canada). Plasma levels of angiopoietin Ang-1 and Ang-2 were determined by ELISA (R&D Systems, USA).
To assess whether gNO inhalation may cause inflammation or endothelial activation cytokines and the vascular endothelium activation factors Ang-1 and Ang-2 were quantified in peripheral plasma at baseline at various time points thereafter.

[4] = 160 ppm gNO 30 min, 5 times a day, 5 days, 10 healthy adults
[5] = during or after gNO administration, 160 ppm

[N]=O [gNO, nitric oxide]
inhalation threshold limit value (TLV) as a time-weighted average (TWA) [1]: 25 ppm | minor adverse events reported [2, 4]: Three minor adverse events were reported | significant adverse events [2, 4]: no significant adverse events were observed | tolerability of treatments ([2]; 160 ppm gNO 30 min, 5 times a day, 5 days, 10 healthy adults, 250 administrations): All treatments were well tolerated | lowest observed SpO2 ([2]; 160 ppm gNO intermittent inhalation): 93% | SpO2 levels over time, pretreatment vs post treatment ([2]; 160 ppm gNO, not significant statistically nor clinically): decreased slightly | vital signs ([2]; during and after gNO administration, 160 ppm): all vital signs remained within normal limits | blood pressure [2, 5]: no drop in blood pressure | incidences of hypoxemia (less than 85% SpO2) [2, 5]: No sudden incidences of hypoxemia | LD100 (S. aureus (ATCC)): 4 h | Latent Period (S. aureus (ATCC)): 3 h | −2.5 Log10 (S. aureus (ATCC)): 3.3 hours | infectivity [3]: reducing the infectivity | Ang-2/Ang-1 ratio (Ang-1 and Ang-2): not affected | plasma Ang-1 (Ang-1 and Ang-2): unaffected | plasma Ang-2 (Ang-1 and Ang-2): not affected
